Measurements reported in patent US5760036A, “Aminediol protease inhibitors” (E. R. Squibb & Sons, Inc., priority 1995, dated 1998).
Counter-ions that a name gives are not always drawn. Like-named read-outs stand apart in the source and are kept apart here.

Key:
HIV protease = target: T1, HIV protease (Human immunodeficiency virus type 1 group M subtype B, UniProt P04585); assay: HIV Protease Assay; type: biochemical
T1 construct: and purified protease
Outline: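 At a single final concentration of 10 μM (4% DMSO), inhibitors were added to a 30-minute, 37° C reaction of purified enzyme with 450 μM H2N-Val-Ser-Gln-Asn-(β-naphthyl-alanine)-Pro-Val-Ile-OH at pH 5.5 (sodium acetate, BSA). Hydrolysis was quantified by reverse-phase HPLC with 220 nm detection after acid quench.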

[1] = tested on: RF strain of HIV (CEM-SS cells); assay: Cell Culture Anti-HIV Activity (cell viability, formazan); type: cell-based; conditions: CEM-SS cells, RF strain of HIV, multiplicity of infection 0.04, 6 days at 37° C., 450 nm, read-out: HIV (CEM Cells) IC50
Outline: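 Half-log compound dilutions added to CEM-SS cells (5000/well) carrying HIV RF (MOI 0.04), 6 days, 37° C. Cell protection measured as formazan from tetrazolium, A450. IC50: drug level restoring infected-cell formazan to 50% of the uninfected untreated control.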

[2] = pH 5.5, read-out: HIV Protease % Inhibition at 10 μM
[3] = Human immunodeficiency virus 1, CEM-SS, 144 h
[4] = pH 5.5, 10 μM inhibitor, 4% DMSO, 450 μM substrate, pH 5.5, 30 minutes at 37° C., RP-HPLC, read-out: HIV Protease % Inhibition at 10 μM

Structure (SMILES)	inhibition at 10 µM (HIV protease; [2]) [%]	IC50 [1, 3] [nM]	IC50 [1] [nM]	inhibition at 10 µM (HIV protease; [4]) [%]
CC(C)(C)OC(=O)N[C@@H](Cc1ccccc1)[C@H](O)CNC[C@@H](O)[C@H](Cc1ccccc1)NC(=O)C(C)(C)O [Compound 278, [1S-[1R*,2S*(2S*,3R*)]]-[2-Hydroxy-3-[[2-hydroxy-3-[(2-hydroxy-2-methyl-1-oxoproply)amino]-4-phenylbutyl]amino]-1-(phenylmethyl)propyl]carbamic acid, 1,1-dimethylethyl ester]	94	840	–	–
CC(C)(C)OC(=O)N[C@@H](Cc1ccccc1)[C@H](O)CNC[C@@H](O)[C@H](Cc1ccccc1)NC(=O)C1(O)CCCC1(C)C (single isomer, unassigned; isomer a) [Compound 321, [1S-[1R*,2S*(2S*,3R*)]]-[3-[[3-[[2,2-Dimethyl-1-hydroxycyclopentyl)-carbonyl]amino]-2-hydroxy-4-phenylbutyl]amino]-2-hydroxy-1-(phenylmethyl)propyl]carbamic acid, 1,1-dimethylethyl ester, isomer A]	100	–	200	–
CC(C)(C)OC(=O)N[C@@H](Cc1ccccc1)[C@H](O)CNC[C@@H](O)[C@H](Cc1ccc(OCCO)cc1)NC(=O)OC(C)(C)C [Compound 209, [1S-[1R*,2S*(2S*,3R*)]]-[3[[-3-[[(1,1-Dimethylethoxy)carbonyl]amino]-2-hydroxy-4-[4-(2-hydroxyethoxy)phenyl]butyl]amino]-2-hydroxy-1-(phenylmethyl)propyl]-carbamic acid, 1,1-dimethylethyl ester]	–	30	–	99
C[C@H](O)[C@H](NC(=O)OCc1ccccc1)C(=O)N[C@@H](Cc1ccccc1)[C@H](O)CNC[C@@H](O)[C@H](Cc1ccccc1)NC(=O)OC(C)(C)C (relative stereo) [Compound 205, [1R*,2S*(2S*,3R*)]-N-[3-[[3-[[(1,1-Dimethylethoxy)carbonyl]amino]-2-hydroxy-4-phenylbutyl]amino]-2-hydroxy-1-(phenylmethyl)propyl]-N^2-[(phenylmethoxy)carbonyl]-L-allothreoninamide]	–	70	–	98
CC(C)(C)OC(=O)N[C@@H](Cc1ccccc1)[C@H](O)CNC[C@@H](O)[C@H](Cc1ccc(O)cc1)NC(=O)OC(C)(C)CO [Compound 233, [1S-[1R*,2S*(2S*,3R*)]]-[3-[[3-[[(1,1-Dimethylethoxy)carbonyl]amino]-2-hydroxy-4-(4-hydroxyphenyl)butyl]amino]-2-hydroxy-1-(phenylmethyl)propyl]carbamic acid,2-hydroxy-1,1-dimethylethyl ester]	–	1000	–	100
CC(C)[C@H](NC(=O)c1nc2ccccc2[nH]1)C(=O)N[C@@H](Cc1ccccc1)[C@H](O)CNC[C@@H](O)[C@H](Cc1ccccc1)NC(=O)OC(C)(C)C [Compound 101, [S-[1R*,2S*(2S*,3R*)]-N-[3-[[3-[[(1,1-Dimethylethoxy)carbonyl]amino]-2-hydroxy-4-phenylbutyl]amino]-2-hydroxy-1-(phenylmethyl)propyl]-N^2-[(1H-benzimidazol-2-yl)-carbonyl]-L-valinamide]]	–	140	–	99
CC(C)(C)OC(=O)N[C@@H](Cc1ccccc1)[C@H](O)CNC[C@@H](O)[C@H](Cc1ccccc1)NC(=O)OC1(CO)CCC1 [Compound 303, [1S-(1R*,2S*)]-[Iminobis[2-hydroxy-1-(phenylmethyl)-3,1-propanediyl]]bis[[carbamic acid], 1-(hydroxymethyl)cyclobutyl 1,1-dimethylethyl ester]	–	70	–	98
C[C@@H](O)[C@H](NC(=O)OCc1ccccc1)C(=O)N[C@@H](Cc1ccccc1)[C@H](O)CNC[C@@H](O)[C@H](Cc1ccccc1)NC(=O)OC(C)(C)C [Compound 100, [S-[1R*,2S*(2S*,3R*)]-N-[3-[[3-[[(1,1-Dimethylethoxy)carbonyl]amino]-2-hydroxy-4-phenylbutyl]amino]-2-hydroxy-1-(phenylmethyl)-propyl]-N^2 [(phenylmethoxy)carbonyl]-L-threoninamide]	–	230	–	99
CC(C)[C@H](NC(=O)OCc1ncc[nH]1)C(=O)N[C@@H](Cc1ccccc1)[C@H](O)CNC[C@@H](O)[C@H](Cc1ccccc1)NC(=O)OC(C)(C)C (relative stereo) [Compound 249, [1R*,2S*(2S*,3R*)]-N-[3-[[3-[[(1,1-Dimethylethoxy)carbonyl]amino]-2-hydroxy-4-phenylbutyl]amino]-2-hydroxy-1-(phenylmethyl)propyl]-N^2-[(1H-imidazol-2-ylmethoxy)carbonyl]-L-valinamide, acetate (2:3) salt]	–	840	–	100
CC(C)(C)OC(=O)N[C@@H](Cc1ccccc1)[C@H](O)CNC[C@@H](O)[C@H](Cc1ccccc1)NC(=O)OC1(C)CCC1 [Compound 160, [1S-(1R*,2S*)]-[Iminobis[2-hydroxy-1-(phenylmethyl)-3,1-propanediyl]]bis[carbamic acid], 1,1-dimethylethyl-1-methylcyclobutyl ester]	–	80	–	99
CC(C)(C)OC(=O)N[C@@H](Cc1ccccc1)[C@H](O)CNC[C@@H](O)[C@H](Cc1ccccc1)NC(=O)C(NC(=O)OCc1ccccc1)C(C)(C)O (single isomer, unassigned; isomer b) [Compound 302, [1S-[1R*,2S*(2S*,3R*)]]-[1-[[[3-[[(1,1-Dimethylethoxy)carbonyl]amino]-2-hydroxy-4-phenylbutyl]amino]-2-hydroxy-1-(phenylmethyl)propyl]amino]carbonyl]-2-hydroxy-2-methylpropyl]carbamic acid, phenylmethyl ester, isomer B]	–	250	–	99
C[C@H](NC(=O)OCc1nc2ccccc2[nH]1)C(=O)N[C@@H](Cc1ccccc1)[C@H](O)CNC[C@@H](O)[C@H](Cc1ccccc1)NC(=O)OC(C)(C)C (relative stereo) [Compound 220, [1R*,2S*(2S*,3R*)]-N^2-[[(2-Benzimidazolyl)methoxy]carbonyl]-N-[3-[[3-[[(1,1-dimethylethoxy)carbonyl]amino]-2-hydroxy-4-phenylbutyl]amino]-2-hydroxy-1-(phenylmethyl)propyl]-L-alaninamide]	–	770	–	100
CC(C)[C@H](NC(=O)OCc1cc2ccccc2[nH]1)C(=O)N[C@@H](Cc1ccccc1)[C@H](O)CNC[C@@H](O)[C@H](Cc1ccccc1)NC(=O)OC(C)(C)C (relative stereo) [Compound 104, [1R*,2S*(2S*,3R*)]-N-[3-[[3-[[(1,1-dimethylethoxy)carbonyl]amino]-2-hydroxy-4-phenylbutyl]amino]-2-hydroxyl-1-(phenylmethyl)propyl]-N^2-[(1H-indol-2-ylmethoxy)carbonyl]-L-valinamide]	–	30	–	99
CC(C)(C)OC(=O)N1Cc2ccccc2CC1C(O)CNCC(O)C1Cc2ccccc2CN1C(=O)OC(C)(C)C (stereo not drawn) [Compound 11, [R-(R*,R*)]-3,3'[Iminobis(1-hydroxy-2,1-ethanediyl)]-bis[2(1H)-isoquinolinecarboxylic acid], bis(1,1-dimethylethyl) ester]	–	> 6000	–	0
CC(C)(C)OC(=O)N[C@@H](Cc1ccccc1)[C@H](O)CNC[C@@H](O)[C@H](Cc1ccccc1)NC(=O)OC(C)(C)C#CCCc1ccccc1 [Compound 155, [1S-(1R*,2S*)]-[Iminobis[2-hydroxy-1-(phenylmethyl)-3,1-propanediyl]biscarbamic acid, 1,1-dimethylethyl 1,1-dimethyl-5-phenyl-2-pentynyl ester]	–	> 200	–	95
CC(C)(C)OC(=O)N[C@@H](C/C=C/c1ccc(O)cc1)[C@H](O)CNC[C@@H](O)[C@H](Cc1ccccc1)NC(=O)OC(C)(C)C [Compound 235, [1S-[1R*,2S*[2S*,3R*(E)]]]-[3-[[3-[[(1,1-Dimethylethoxy)carbonyl]amino]-2-hydroxy-6-(4-hydroxyphenyl)-5-hexenyl]amino]-2-hydroxy-1-(phenylmethyl)propyl]carbamic acid, 1,1-dimethylethyl ester]	–	350	–	97
CN(C)C(=O)N[C@H](C(=O)N[C@@H](Cc1ccccc1)[C@H](O)CNC[C@@H](O)[C@H](Cc1ccccc1)NC(=O)OC(C)(C)C)C(C)(C)C (relative stereo) [Compound 305, [1R*,2S* (2S*,3R*)]-N-[3-[[3-[[(1,1Dimethylethoxy)carbonyl]amino]-2-hydroxy-4-phenylbutyl]amino]-2-hydroxy-1-(phenylmethyl)propyl]-N^2-[(dimethylamino)carbonyl)-3-methyl-L-valinamide]	–	200	–	100
CC(C)(C)OC(=O)N[C@@H](Cc1ccccc1)[C@H](O)CNC[C@@H](O)[C@H](Cc1ccc(OCc2ccccc2)cc1)NC(=O)OC(C)(C)C [Compound 179, [1S-[1R*,2S*(2S*,3R*)]]-[3-[[3-[[(1,1-Dimethylethoxy)carbonyl]amino]-2-hydroxy-4-phenylbutyl]amino]-2-hydroxy-1-[[4-(phenylmethoxy)-phenyl]methyl]propyl]carbamic acid, 1,1-dimethylethyl ester]	–	170	–	99
